Paper PMC5656322, “BAK1 is involved in AtRALF1-induced inhibition of root cell expansion” (PLoS Genetics, 2017)
Where no end group is shown, it is not given here.

How the values were obtained:
HA-BAK1-ECD = test: Co-immunoprecipitation in vitro; format: binding, Arabidopsis thaliana; settings: 100 nM each protein, pH 6.3, overnight 4 °C, agarose anti-HA beads
Experimental: The purified recombinant proteins AtRALF1 and HA-BAK1-ECD and the synthetic peptides RALF1(9–49) and RALF1(I6A) were combined in 200 μl of interaction buffer pH 6.3 (100 mM NaCl; 1 mM PMSF; 0.5%Triton X; 2.7 mM KCl; 8 mM NaH2PO4; 2 mM KH2PO4) overnight at 4 °C. A 100-nM concentration of each protein was used. This solution was incubated with agarose anti-HA beads (EZview Red Anti-HA Affinity Gel, Sigma) for 30 min at 4 °C to immunoprecipitate the proteins, washed 5 times with interaction buffer, eluted in 1X SDS sample buffer containing 10% β-mercaptoethanol and applied to an SDS-PAGE gel. The immunoprecipitated HA-BAK1-ECD and co-immunoprecipitated AtRALF1 were analyzed by protein blotting as described. The primary and secondary antibodies used to detect AtRALF1 were anti-AtRALF1 (1:10,000, Celula B, Immunology Laboratory, UFRGS, Brazil) and goat anti-rabbit HRP-conjugated secondary antibody (1: 10,000, BioRad), respectively.

[1] = system: intact Arabidopsis seedlings; test: Binding assay with acridinium-labeled AtRALF1, intact seedlings; design: species or system Arabidopsis thaliana; settings: for competition of acriAtRALF1 binding: 10-fold excess of unlabeled peptide
Experimental: (A) Whole seedlings (5 days old) were treated for 15 min with acriAtRALF1 (acriR1), acriR1 and an excess of unlabeled AtRALF34 (R34), RALF1(9–49) [(R-9-49)], or AtRALF1 (R1), as indicated. The values are the mean ± SD of two measurements (5 seedlings each). (B) Microsomal fractions from wild-type and bak1 mutants were incubated for 15 min with acriAtRALF1 (acriR1), with acriR1 and an excess of unlabeled RALF1(9–49) [(R-9-49)], or with AtRALF1 (R1), as indicated. The values are the mean ± SD of two measurements. The proportions of labeled: unlabeled proteins are shown in parentheses. Single and triple asterisks indicate P < 0.1 and P < 0.01 (Student’s t test).
Arabidopsis seedlings were grown for 5 days on vertical plates. Roots were homogenized in extraction buffer [300 mM sucrose, 100 mM Tris-HCl pH 7.5, 25 mM EDTA, 25 mM NaF, 1 mM Na2MoO4, 1 mM PMSF and protease inhibitor cocktail (Roche), adjusted to pH 6.2], and the homogenate was spun at 2,000 x g for 10 min at 4 °C. The supernatant was recovered and centrifuged at 100,000 x g for 50 min at 4 °C to precipitate the microsomal pellet. The pellet was resuspended in the extraction buffer plus 0.5% Triton-X. Seedlings or microsomal fractions were placed in 200 μl of medium and incubated with 7 nM acridinium-labeled peptide (acriAtRALF1 or acriAtRALF34) and different concentrations of AtRALF1, AtRALF34 or RALF1(9–49) for 15–20 min at 4 °C on a shaker. After incubation, the seedlings or microsomal fractions were washed three times with the same medium. Unless indicated otherwise, five entire seedlings and approximately 10 ng of microsomal fractions were used per treatment. The resulting luminescence emissions from the acridinium were measured using a microplate reader (Biotec ELx 800) at 2 s after injecting 50 μl of a solution containing 20 mM H2O2 in 0.1 M NaOH. These experiments were repeated at least three times using independent biological replicates. Duplicates were used for each concentration or treatment. The data shown are from one representative experiment.
Supplementary file pgen.1007053.s017.pdf: S17 Fig Analyses of acridinium-labeled AtRALF1 (acriAtRALF1) and binding of acriAtRALF1 in bak1-4 and fer4 mutants. (A) The Ca^2+ mobilization assay comparing the acriAtRALF1 activity with the AtRALF1 peptide. A total of 20 time-points per treatment were measured over 160 sec and summed. The results are the means ± SD of two measurements. (B) acriAtRALF1 binding in whole seedlings and only in roots of Arabidopsis. The roots were excised just before measurements. Ctr, seedlings treated with unlabeled AtRALF1. (C) Whole seedlings (5 days old) were treated for 20 min with acriAtRALF1 (acriR1), acriR1 and an excess of unlabeled AtRALF1 (R1), as indicated. The values are the mean ± SD of three measurements (5 seedlings each). The proportions of labeled: unlabeled proteins are shown in parentheses. Triple asterisks indicates P < 0.001 (Student’s t test). (PDF) Click here for additional data file.
Supplementary file pgen.1007053.s018.pdf: S18 Fig Binding of acridinium-labeled AtRALF1 and AtRALF34 to intact Arabidopsis seedlings. (A) bak7 seedlings (5 days old) were treated for 15 min with acriAtRALF1 (acriR1), acriR1 and an excess of unlabeled AtRALF1 (R1), as indicated. (B) bak1 seedlings (5 days old) were treated for 15 min with acriAtRALF34 (acriR34), acriR34 and an excess of unlabeled AtRALF34 (R34) or AtRALF1 (R1), as indicated. The proportions of labeled: unlabeled proteins are shown in parentheses. The values are the mean ± SD of two measurements (5 seedlings each). (PDF) Click here for additional data file.

Substance: AtRALF1: root-specific RALF isoform in Arabidopsis; recombinant peptide hormone produced in E. coli (ATTKYISYQSLKRNSVPCSRRGASYYNCQNGAQANPYSRGCSKIARCRS; ends and bridges not checked; cysteine pairing not given here)
- co-immunoprecipitation with HA-BAK1-ECD (HA-BAK1-ECD): co-immunoprecipitated
- reduction of acriAtRALF1 binding ([1]; bak1-1, 10-fold excess of AtRALF1): approximately 32%
- acriAtRALF1 binding reduced to ([1]; bak1-1, 100- or 500-fold excess of AtRALF1): 54%
- reduction of acriAtRALF1 binding ([1]; bak1-3, 10-fold excess of AtRALF1): ~35%
- acriAtRALF1 binding reduced to ([1]; bak1-3, 100- or 500-fold excess of AtRALF1): 63%
- reduction of acriAtRALF1 binding ([1]; bak1-4, 10-fold excess of AtRALF1): ~33%
- acriAtRALF1 binding reduced to ([1]; bak1-4, 100- or 500-fold excess of AtRALF1): 61%
- share of AtRALF1 binding due to BAK1 ([1]; intact roots): approximately 30%
- reduction of acriAtRALF1 binding ([1]; wild-type seedlings, 10-fold excess of unlabeled AtRALF1): 24%
- reduction of acriAtRALF1 binding ([1]; wild-type seedlings, 100-fold excess of AtRALF1, printed "up to"): 59%
- further reduction of acriAtRALF1 binding ([1]; wild-type seedlings, 500-fold excess of AtRALF1): No further reduction was observed

Substance: RALF1(9–49): inactive AtRALF1 peptide which has a deletion of the first 8 amino acids (QSLKRNSVPCSRRGASYYNCQNGAQANPYSRGCSKIARCRS; ends and bridges not checked; cysteine pairing not given here; UniProt Q9SRY3 80-120, looked up, fragment)
- co-immunoprecipitation with HA-BAK1-ECD (HA-BAK1-ECD): did not co-immunoprecipitate with BAK1
- competition of acriAtRALF1 binding ([1]; bak1 mutants): did not reduce the binding in the mutant backgrounds
- competition of acriAtRALF1 binding ([1]; wild-type seedlings, 7 nM acriAtRALF1, 15 min, 4 °C): could not be competed out
